According to the Kinase Knowledgebase extract (Sharma et al. 2016):

Target: MAPK14;MAPK11;MAPK12 (human) (UniProt Q16539)
Experiment: Inhibition of p38 Kinase Activity

| IC50 [nM] | SMILES |
| --- | --- |
| < 10000 | CNc1nc(Nc2ccc3ncsc3c2)nc(N[C@@H](C)C2CCCCC2)n1 |
| < 10000 | CCNC(=O)N1CC2CC1CN2c1nc(NCC(C)c2ccccc2)nc(Nc2ccc3ncsc3c2)n1 (stereo not drawn) |
| < 1000 | CNC(=O)c1ccc(C)c(Nc2nc(NC3CNC3)nc(N(C)CC(C)(C)C)n2)c1 |
| < 1000 | CNC(=O)c1ccc(C)c(Nc2nc(N[C@H]3CCN(Cc4ccccc4)C3)nc(N(C)CC(C)C)n2)c1 |
| < 10000 | CC(Cc1ccccc1)Nc1nc(Nc2ccc3ncsc3c2)nc(N2CCNCC2)n1 (stereo not drawn) |
| < 1000 | Cc1ccc(C(N)=O)cc1Nc1nc(N[C@@H]2CCN(C(C)C)C2)nc(N(C)CC(C)(C)C)n1 |
| < 1000 | Cc1ccc(C(N)=O)cc1Nc1nc(N[C@H]2CCN(C3CCCC3)C2)nc(N(C)CC(C)(C)C)n1 |
| < 10000 | C[C@H](CNc1nc(NCCO)nc(Nc2ccc3ncsc3c2)n1)c1ccccc1 |
| < 1000 | CNC(=O)c1ccc(C)c(Nc2nc(N[C@H]3CCNC3)nc(N(C)CC(C)C)n2)c1 |
| < 1000 | CCONC(=O)c1ccc(C)c(Nc2nc(N)nc(N(C)CC(C)(C)C)n2)c1 |
| < 1000 | CONC(=O)c1ccc(C)c(Nc2nc(N)nc(N(C)CC(C)(C)C)n2)c1 |
| < 1000 | Cc1ccc(C(N)=O)cc1Nc1nc(N[C@@H]2CCNC2)nc(N(C)C2CCCC2)n1 |
| < 1000 | Cc1ccc(C(N)=O)cc1Nc1nc(NCC(C)c2ccc(Cl)cc2)nc(N[C@H]2CCNC2)n1 (stereo partly drawn) |
| < 1000 | COc1ccccc1CN1CC[C@@H](Nc2nc(Nc3cc(C(N)=O)ccc3C)nc(N(C)CC(C)C)n2)C1 |
| < 1000 | Cc1ccc(C(N)=O)cc1Nc1nc(N[C@H]2CCN(C3CCC3)C2)nc(N(C)CC(C)C)n1 |
| < 1000 | Cc1ccc(C(N)=O)cc1Nc1nc(N[C@H]2CCNC2)cc(N(C)CC(C)(C)C)n1 |
| < 10000 | CC1(C)C2CCC(CNc3nc(Nc4ccc5[nH]nnc5c4)nc(N4CCNCC4)n3)C1C2 (stereo not drawn) |
| < 1000 | Cc1ccc(CN2CCC(Nc3nc(Nc4cc(C(N)=O)ccc4C)nc(N(C)CC(C)C)n3)C2)c(C)c1 (stereo not drawn) |
| < 10000 | CC(CNc1nc(Nc2ccc3ncsc3c2)nc(N(C)C)n1)c1ccccc1 (stereo not drawn) |
| < 1000 | CONC(=O)c1ccc(C)c(Nc2nc(N[C@H]3CCNC3)cc(N(C)CC(C)(C)C)n2)c1 |
| < 10000 | c1ccc(C2CCCN(c3nc(Nc4ccc5ncsc5c4)nc(N4CCNCC4)n3)C2)cc1 (stereo not drawn) |
| < 1000 | Cc1ccc(C(N)=O)cc1Nc1nc(O)nc(N[C@H]2CCNC2)n1 |
| < 1000 | CCNC(=O)c1ccc(C)c(Nc2nc(NC[C@H]3CCCN3)nc(N(C)CC(C)(C)C)n2)c1 |
| < 1000 | CCC(C)N1CC[C@@H](Nc2nc(Nc3cc(C(N)=O)ccc3C)nc(N(C)CC(C)C)n2)C1 (stereo partly drawn) |

| IC50 [nM] | SMILES |
| --- | --- |
| < 1000 | CONC(=O)c1ccc(C)c(Nc2nc(F)cc(N(C)CC(C)(C)C)n2)c1 |
| < 1000 | Cc1ccc(C(N)=O)cc1Nc1nc(N[C@H]2CCCNC2)nc(N(C)CC(C)(C)C)n1 |
| < 1000 | Cc1ccc(C(N)=O)cc1Nc1nc(NCC2CCCC2)nc(N[C@H]2CCNC2)n1 |
| < 10000 | COC1CCCC(C(=O)N2CCN(c3nc(NCC(C)c4ccccc4)nc(Nc4ccc5ncsc5c4)n3)CC2)C1 (stereo not drawn) |
| < 1000 | CONC(=O)c1ccc(C)c(Nc2nc(NCCn3cccn3)nc(N(C)CC(C)(C)C)n2)c1 |
| < 1000 | Cc1ccc(C(N)=O)cc1Nc1nc(N[C@H]2CCCC[C@H]2NC(C)C)nc(N(C)CC(C)(C)C)n1 |
| < 1000 | CONC(=O)c1ccc(C)c(Nc2nc(N[C@H]3CCN(C)C3)nc(N(C)CC(C)(C)C)n2)c1 |
| < 30000 | CONC(=O)c1ccc(C)c(Sc2nc(N[C@@H]3CCNC3)nc(N(C)CC(C)(C)C)n2)c1 |
| < 10000 | CC(=O)N1CCN(c2nc(NC[C@@H]3CC[C@H]4C[C@@H]3C4(C)C)nc(Nc3ccc4ncsc4c3)n2)CC1 |
| < 10000 | CC(CNc1nc(Nc2ccc3ncsc3c2)nc(N2CCN(C(=O)c3ccccc3)CC2)n1)c1ccccc1 (stereo not drawn) |
| < 1000 | Cc1ccc(C(N)=O)cc1Nc1nc(N[C@H]2CCN(C)C2)nc(N(C)CC(C)(C)C)n1 |
| < 10000 | CC(CN(C)c1nc(Nc2ccc3ncsc3c2)nc(N2CCNCC2)n1)c1ccccc1 (stereo not drawn) |
| < 1000 | Cc1ccc(C(N)=O)cc1Nc1nc(N)nc(NC[C@@H]2CC[C@H]3C[C@@H]2C3(C)C)n1 |
| < 1000 | Cc1ccc(C(N)=O)cc1Nc1nc(N[C@H]2CCN(C(C)(C)C)C2)nc(N(C)CC(C)(C)C)n1 |
| < 1000 | CCN1CC[C@@H](Nc2nc(Nc3cc(C(N)=O)ccc3C)nc(N(C)CC(C)(C)C)n2)C1 |
| < 1000 | Cc1ccc(C(N)=O)cc1Nc1nc(N[C@H]2CCN(Cc3ccc(F)cc3)C2)nc(N(C)CC(C)C)n1 |
| < 10000 | CC(C)c1nc(Cl)nc(Nc2ccc3ncsc3c2)n1 |
| < 1000 | CNc1nc(Nc2cc(C(=O)NOC)ccc2C)nc(N(C)CC(C)(C)C)n1 |
| < 1000 | CNC(=O)c1ccc(C)c(Nc2nc(N[C@H]3CCN(C(C)CO)C3)nc(N(C)CC(C)(C)C)n2)c1 (stereo partly drawn) |
| < 10000 | Cc1ccc2c(c1)ncn2-c1nc(F)cc(NCCOC(C)C)n1 |
| < 10000 | CNCCN(C)c1nc(NCc2ccc(F)cc2F)nc(-n2cnc3ccccc32)n1 |
| < 10000 | CC(CNc1nc(Nc2ccc3ncsc3c2)nc(N2CCN(C(=O)c3cccnc3)CC2)n1)c1ccccc1 (stereo not drawn) |
| < 1000 | CONC(=O)c1ccc(C)c(Nc2nc(NCc3ccccc3)nc(N(C)CC(C)(C)C)n2)c1 |
| < 1000 | Cc1cc(Cl)c(C(N)=O)cc1Nc1nc(N[C@H]2CCNC2)nc(N(C)CC(C)C)n1 |

| IC50 [nM] | SMILES |
| --- | --- |
| < 1000 | Cc1ccc(C(N)=O)cc1Nc1nc(NC2CCCC2)nc(N(CCO)Cc2ccccc2)n1 |
| < 1000 | Cc1ccc(C(N)=O)cc1Nc1nc(N[C@H]2CCN(C(C)C#N)C2)nc(N(C)CC(C)C)n1 (stereo partly drawn) |
| < 1000 | Cc1ccc(C(N)=O)cc1Nc1nc(N[C@H]2CCNC2)nc(N(C)CC(C)(C)C)n1 |
| < 10000 | CNCCN(C)c1nc(NCC(C)c2ccccc2)nc(Oc2ccc3ncsc3c2)n1 (stereo not drawn) |
| < 1000 | Cc1ccc(C(=O)O)cc1Nc1nc(N[C@H]2CCNC2)nc(N(C)CC(C)(C)C)n1 |
| < 1000 | Cc1ccc(C(N)=O)cc1Nc1nc(N[C@@H]2CCNC2)nc(N2CCCC(C(N)=O)C2)n1 (stereo partly drawn) |
| < 10000 | CC(C)NC(=O)N1CC2CC1CN2c1nc(NCC(C)c2ccccc2)nc(Nc2ccc3ncsc3c2)n1 (stereo not drawn) |
| < 1000 | Cc1ccc(C(N)=O)cc1Nc1nc(N[C@@H]2CCCC[C@@H]2N)nc(N(C)CC(C)(C)C)n1 |
| < 1000 | Cc1ccc(C(N)=O)cc1Nc1nc(N[C@H]2CCN(C(C#N)c3ccccc3)C2)nc(N(C)CC(C)(C)C)n1 (stereo partly drawn) |
| < 10000 | Clc1nc(Nc2ccc3ncsc3c2)nc(N2CCCC(c3ccccc3)C2)n1 (stereo not drawn) |
| < 10000 | CC1(C)[C@H]2CC[C@@H](CNc3nc(Nc4ccc5ncsc5c4)nc(N4CCNCC4)n3)[C@@H]1C2 |
| < 1000 | Cc1ccc(C(N)=O)cc1Nc1nc(N[C@H]2CCNC2)nc(N(C)CC2CCCCC2)n1 |
| < 1000 | COc1ccc(NC(=O)c2ccc(C)c(Nc3nc(N[C@H]4CCNC4)nc(N(C)CC(C)(C)C)n3)c2)cc1 |
| < 10000 | O=S(=O)(Nc1ncccn1)c1ccc(Nc2nc(Cl)nc(NCCc3ccccc3)n2)cc1 |
| < 10000 | C[C@H](CNc1ncnc(Nc2ccc3ncsc3c2)n1)c1ccccc1 |
| < 1000 | Cc1ccc(C(N)=O)cc1Nc1nc(N[C@H]2CCCC[C@H]2O)nc(N(C)CC(C)C)n1 |
| < 1000 | Cc1ccc(C(N)=O)cc1Nc1nc(NCC2CCNCC2)nc(NC2CCCC2)n1 |
| < 1000 | CONC(=O)c1ccc(C)c(Nc2nc(NCc3ccccn3)nc(N(C)CC(C)(C)C)n2)c1 |
| < 1000 | Cc1ccc(C(=O)NO)cc1Nc1nc(N[C@H]2CCNC2)nc(N(C)CC(C)(C)C)n1 |
| < 1000 | Cc1c(Nc2nc(NC[C@@H]3CC[C@H]4C[C@H]3C4(C)C)nc(N(C)CC(C)C)n2)cccc1C(N)=O |
| < 10000 | CNc1nc(NCCOC(C)C)nc(Nc2ccc3ncsc3c2)n1 |
| < 1000 | CNC(=O)c1ccc(C)c(Nc2nc(NC3CCN(Cc4ccccn4)C3)nc(N(C)CC(C)(C)C)n2)c1 (stereo not drawn) |
| < 1000 | CCC[C@@H]1C[C@@H](Nc2nc(Nc3cc(C(N)=O)ccc3C)nc(N(C)CC(C)(C)C)n2)CN1 |
| < 1000 | Cc1ccc(C(N)=O)cc1Nc1nc(O[C@H]2CCNC2)nc(N(C)CC(C)(C)C)n1 |

| IC50 [nM] | SMILES |
| --- | --- |
| < 1000 | Cc1ccc(C(N)=O)cc1Nc1cc(NC(C)c2ccccc2)nc(NCC(N)=O)n1 (stereo not drawn) |
| < 1000 | Cc1ccc(C(N)=O)cc1Nc1nc(N[C@H]2CCN(Cc3cccc(F)c3)C2)nc(N(C)CC(C)C)n1 |
| < 1000 | CC(C)CN(C)c1nc(NC2CCN(CC3CCNCC3)C2)nc(NC2CC(C(N)=O)CCC2C)n1 (stereo not drawn) |
| < 10000 | c1nc2ccc(Nc3nc(CCC4CCCCC4)nc(N4CCNCC4)n3)cc2s1 |
| < 1000 | Cc1ccc(C(N)=O)cc1Nc1nc(CC2CCCC2)nc(Nc2ccncc2)n1 |
| < 1000 | Cc1ccc(C(N)=O)cc1Nc1nc(NC2CCN(Cc3ccccc3)C2)nc(N[C@H]2CCNC2)n1 (stereo partly drawn) |
| < 1000 | Cc1ccc(C(N)=O)cc1Nc1nc(N[C@H]2CCN(C3CCCC3)C2)nc(N(C)CC(C)C)n1 |
| < 1000 | CNC(=O)c1ccc(C)c(Nc2nc(N[C@H]3CCNC3)nc(SCC(C)C)n2)c1 |
| < 1000 | CONC(=O)c1ccc(C)c(Nc2nc(NCC3CCC(=O)N3)nc(N(C)CC(C)(C)C)n2)c1 (stereo not drawn) |
| < 1000 | Cc1ccc(C(N)=O)cc1Nc1nc(N[C@H]2CCN(C(=O)c3ccccn3)C2)nc(N(C)CC(C)C)n1 |
| < 1000 | Cc1ccc(C(N)=O)cc1Nc1nc(N[C@H]2CCN(c3ccccc3N)C2)nc(N(C)CC(C)(C)C)n1 |
| < 10000 | CC(CNc1nc(Nc2ccc3ncsc3c2)nc(N2CC3CC2CN3C(=N)N)n1)c1ccccc1 (stereo not drawn) |
| < 10000 | CC(Cc1ccccc1)Nc1nc(Nc2ccc3ncsc3c2)nc(N(C)C)n1 (stereo not drawn) |
| < 10000 | CC1(C)C2CCC(CNc3nc(Nc4ccc5scnc5c4)nc(N4CCNCC4)n3)C1C2 (stereo not drawn) |
| < 10000 | CC(CNc1nc(Nc2ccc3ncsc3c2)nc(N2CCN(C(=O)C3CCOC3)CC2)n1)c1ccccc1 (stereo not drawn) |
| < 1000 | CC(=O)Nc1ccc(C)c(Nc2nc(N[C@H]3CCNC3)nc(N(C)CC(C)(C)C)n2)c1 |
| < 1000 | Cc1ccc(C(N)=O)cc1Nc1nc(N[C@H]2CCN(C(C)c3cccnc3)C2)nc(N(C)CC(C)C)n1 (stereo partly drawn) |
| < 1000 | Cc1ccc(C(N)=O)cc1Nc1nc(N[C@H]2CCNC2)nc(N(C)C[C@@H]2CC[C@H]3C[C@H]2C3(C)C)n1 |
| < 1000 | CCONC(=O)c1ccc(C)c(Nc2nc(N[C@H]3CCNC3)nc(N(C)CC(C)(C)C)n2)c1 |
| < 1000 | CC(=O)NCCNc1nc(Nc2cc(C(N)=O)ccc2C)nc(N(C)CC(C)(C)C)n1 |
| < 1000 | Cc1ccc(-c2nn(C)c(=O)[nH]2)cc1Nc1nc(N(C)CC(C)(C)C)nc(N2CCCN(C)CC2)n1 |
